# Source: US8772322B2, “Synergistic preservative compositions” (ISP Investments Inc., priority 2010, dated 2014)
# Assays:
# Assay type in all cases: cell-based
# [1] = test system: Escherichia coli (ATCC 8793); test: MIC / growth test of aqueous biocide mixtures, same protocol as Example 1, with synergy index; on growth: key: growth of the microorganism took place (symbol '+'); or not (symbol '−')
# Protocol: (§1) Synergy is determined from combination studies of the different actives according to the method of calculation put forward by F. C. Kull et al, Applied Microbiology, 9:538 (1961): Synergy Index (SI)=Qa/QA+Qb/QB
# (§2) Where • Qa=concentration of component A in the biocide composition showing the desired effect (e.g. no growth of microorganisms) • QA=concentration of component A as single component showing the desired effect • Qb=concentration of component B in the biocide composition showing the desired effect and • QB=concentration of component B as single component showing the desired effect
# (§3) For a system consisting of three active components the synergy index is calculated by the formula: Synergy Index (SI)=Qa/QA+Qb/QB+Qc/QC
# (§4) Synergy in a composition then exists when the synergy index is less than 1.
# (§5) In this example synergy is shown against the microorganism Staphylococcus aureus (ATCC 6538). For this purpose MIC values were determined for each individual active as well as for different combinations of the 3 actives. MIC (Minimum Inhibitory Concentration) defines the lowest concentration level of a substance to inhibit the growth of a given organism.
# (§6) The cell density of S. aureus was 10*5 cells/ml. The incubation time was 24 hr at 32° C.
# (§7) TSB (Tryptic Soy […]) was used as nutrient medium.
# In this example synergy is shown against the microorganism Escherichia coli (ATCC 8793).
# (§8) The test protocol is the same as described under Example 1.
# In Table 6 the synergy index has been calculated.
# [2] = test system: Staphylococcus aureus (ATCC 6538); test: MIC / growth test of aqueous biocide mixtures in TSB, 24 hr at 32° C., with synergy index (Kull); on growth: key: growth of the microorganism took place (symbol '+'); or not (symbol '−')
# Protocol: as §1, §2, §3, §4, §5
# Subsequently the activity of these mixtures were tested against Staphylococcus aureus.
# as §6, §7
# In this way the table represents the MIC value for each tested combination.
# [3] = test system: Pseudomonas aeruginosa (ATCC 9027); test: MIC / growth test of aqueous biocide mixtures, same protocol as Example 1, with synergy index; on growth: key: growth of the microorganism took place (symbol '+'); or not (symbol '−')
# Protocol: as §1, §2, §3, §4, §5, §6, §7
# In this example synergy is shown against the microorganism Pseudomonas aeruginosa (ATCC 9027).
# as §8
# In Table 4 the synergy index has been calculated.
# [4] = in combination with IPBC 3.9 + CMIT/MIT 0.75 ppm
# [5] = in combination with IPBC 7.8 + CMIT/MIT 0.75 ppm
# [6] = in combination with IPBC 15.6 + CMIT/MIT 0.75 ppm
# [7] = in combination with IPBC 31.2 + CMIT/MIT 0.75 ppm
# [8] = single active, incubation time 24 hours
compound,measurement,setting,value
"O=c1[nH]sc2ccccc12 [BIT, 1,2-Benzisothiazolin-3-one]",growth,"[1]; BIT 1.56 ppm, single active",+
same,growth,"[1]; BIT 3.12 ppm, single active",+
same,growth,"[1]; BIT 6.25 ppm, single active",−
same,growth,"[1]; BIT 12.5 ppm, single active",−
same,growth,"[1]; BIT 25 ppm, single active",−
same,growth,"[1]; BIT 50 ppm, single active",−
same,growth,"[1]; BIT 100 ppm, single active",−
same,MIC BIT con. Qb,[1]; in combination with IPBC 0.98 + CMIT/MIT 0.75 ppm,3.12 ppm
same,MIC BIT con. Qb,[1]; in combination with IPBC 1.95 + CMIT/MIT 0.75 ppm,3.12 ppm
same,MIC BIT con. Qb,[1]; in combination with IPBC 3.9 + CMIT/MIT 0.19 ppm,3.12 ppm
same,MIC BIT con. Qb,[1]; [4],3.12 ppm
same,MIC BIT con. Qb,[1]; in combination with IPBC 7.8 + CMIT/MIT 0.19 ppm,3.12 ppm
same,MIC BIT con. Qb,[1]; [5],3.12 ppm
same,MIC BIT con. Qb,[1]; in combination with IPBC 15.6 + CMIT/MIT 0.19 ppm,3.12 ppm
same,MIC BIT con. Qb,[1]; [6],3.12 ppm
same,MIC BIT con. Qb,[1]; in combination with IPBC 31.2 + CMIT/MIT 0.19 ppm,3.12 ppm
same,MIC BIT con. Qb,[1]; [7],0.78 ppm
same,MIC BIT con. Qb,[1]; in combination with IPBC 62.5 + CMIT/MIT 0.19 ppm,1.56 ppm
same,MIC BIT con. Qb,"[1]; in combination with IPBC 62.5 ppm, CMIT/MIT 0",3.12 ppm
same,"MIC as single component (QA, QB, QC)",[1]; [8],6.25 ppm
same,growth,"[2]; BIT 0.01 ppm, IPBC 0, without CMIT/MIT",+
same,growth,"[2]; BIT 0.03 ppm, IPBC 0, without CMIT/MIT",+
same,growth,"[2]; BIT 0.05 ppm, IPBC 0, without CMIT/MIT",+
same,growth,"[2]; BIT 0.1 ppm, IPBC 0, without CMIT/MIT",+
same,growth,"[2]; BIT 0.19 ppm, IPBC 0, without CMIT/MIT",+
same,growth,"[2]; BIT 0.39 ppm, IPBC 0, without CMIT/MIT",+
same,growth,"[2]; BIT 0.78 ppm, IPBC 0, without CMIT/MIT",+
same,growth,"[2]; BIT 1.56 ppm, IPBC 0, without CMIT/MIT",+
same,growth,"[2]; BIT 3.12 ppm, IPBC 0, without CMIT/MIT",−
same,growth,"[2]; BIT 3.12 ppm, single active",+
same,growth,"[2]; BIT 6.25 ppm, IPBC 0, without CMIT/MIT",−
same,growth,"[2]; BIT 6.25 ppm, single active",−
same,growth,"[2]; BIT 12.5 ppm, IPBC 0, without CMIT/MIT",−
same,growth,"[2]; BIT 12.5 ppm, single active",−
same,growth,"[2]; BIT 25 ppm, single active",−
same,growth,"[2]; BIT 50 ppm, single active",−
same,growth,"[2]; BIT 100 ppm, single active",−
same,MIC BIT con. Qb,[2]; in combination with IPBC 0.49 + CMIT/MIT 1.5 ppm,0.78 ppm
same,MIC BIT con. Qb,[2]; in combination with IPBC 0.98 + CMIT/MIT 1.5 ppm,0.78 ppm
same,MIC BIT con. Qb,[2]; in combination with IPBC 1.95 + CMIT/MIT 0.37 ppm,1.56 ppm
same,MIC BIT con. Qb,[2]; in combination with IPBC 1.95 + CMIT/MIT 1.5 ppm,0.78 ppm
same,MIC BIT con. Qb,[2]; in combination with IPBC 3.9 + CMIT/MIT 0.37 ppm,1.56 ppm
same,MIC BIT con. Qb,[2]; in combination with IPBC 3.9 + CMIT/MIT 1.5 ppm,0.39 ppm
same,MIC BIT con. Qb,"[2]; in combination with IPBC 3.9 ppm, CMIT/MIT 0",1.56 ppm
same,MIC BIT con. Qb,[2]; in combination with IPBC 7.8 + CMIT/MIT 0.37 ppm,1.56 ppm
same,MIC BIT con. Qb,[2]; in combination with IPBC 7.8 + CMIT/MIT 1.5 ppm,0.01 ppm
same,MIC BIT con. Qb,"[2]; in combination with IPBC 7.8 ppm, CMIT/MIT 0",0.78 ppm
same,"MIC as single component (QA, QB, Qc)",[2]; [8],6.25 ppm
same,growth,"[3]; BIT 6.25 ppm, single active",+
same,growth,"[3]; BIT 12.5 ppm, single active",+
same,growth,"[3]; BIT 25 ppm, single active",+
same,growth,"[3]; BIT 50 ppm, single active",−
same,growth,"[3]; BIT 100 ppm, single active",−
same,growth,"[3]; BIT 200 ppm, single active",−
same,MIC BIT con. Qb,[3]; [4],12.5 ppm
same,MIC BIT con. Qb,[3]; [5],12.5 ppm
same,MIC BIT con. Qb,[3]; [6],12.5 ppm
same,MIC BIT con. Qb,[3]; [7],12.5 ppm
same,MIC BIT con. Qb,[3]; in combination with IPBC 62.5 + CMIT/MIT 0.75 ppm,6.25 ppm
same,MIC BIT con. Qb,[3]; in combination with IPBC 125 + CMIT/MIT 0.75 ppm,6.25 ppm
same,MIC BIT con. Qb,"[3]; in combination with IPBC 125 ppm, CMIT/MIT 0",25 ppm
same,"MIC as single component (QA, QB, QC)",[3]; [8],50 ppm
